# Assay: Dose formulation stability by HPLC with radioactivity detection
# Format: physicochemical
# Settings: 20 mg/ml in LCO with 0.1% 1-thioglycerol
# Method: PPI-1011 and [^14C]PPI-1011 were formulated together in liquid coconut oil (LCO) containing 0.1% 1-thioglycerol for oral dosing. For single dose studies, PPI-1011 and [^14C]PPI-1011 were combined to generate an oral formulation with a concentration of 20 mg/ml and 40 μCi/ml on the day before dosing and stored at 4°C. Formulation for the repeat dosing QWBA experiment was made on the day prior to the first dose with a concentration of 20 mg/ml and 20 μCi/ml. This formulation was then aliquoted and stored frozen at −20°C until the day of use. Concentration and radiochemical purity of all formulations were confirmed by HPLC prior to dosing.
# Radiochemical concentrations and purity of the oral dose formulations were all confirmed to be >97% by HPLC with radioactivity detection. The mean radioactivity concentrations of dose formulations were 21.24 μCi/g. Representative radiochromatograms obtained from analysis of dose formulation of [^14C]PPI-1011 are shown in Supplementary Figure S1. The retention time of [^14C]PPI-1011 was approximately 12 min. The stability of the dose formulation at 20 mg/ml concentration was examined at 4°C and at −20°C for up to 24 h. The results are shown in Supplementary Figure S2. […]
compound,measurement,setting,value
CC/C=C\C/C=C\C/C=C\C/C=C\C/C=C\C/C=C\CCC(=O)O[C@H](CO[14CH2]CCCCCCCCCCCCCCC)COC(=O)CCCCC1CCSS1 (some centres unmarked) [[^14C]PPI-1011],Radioactive purity of dose formulation after storage (stability),up to 24 h at 4°C,96.5%
same,Radioactive purity of dose formulation after storage (stability),up to 24 h at −20°C,97.2%

# From article PMC9081329, “Pharmacokinetics, Mass Balance, Excretion, and Tissue Distribution of Plasmalogen Precursor PPI-1011” (Frontiers in Cell and Developmental Biology, 2022)
